Measurements published in the supplement of paper PMC4862054.

Legend:
[1] = tested on: Hs578T; assay: normalised viability (% of control), CellTiter-Blue; higher = more viable cells (about 100 = DMSO control); details: incubation time: 72 h
In short: (§1)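 Breast cancer cell lines were treated for 72 h in 384-well format and measured by CellTiter-Blue fluorescence at 560/590 nm. Results were normalised per plate to vehicle (100) and a positive kill control (0). The entry is normalised viability at a single listed concentration of the series.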

[2] = tested on: CAL-51; assay: as above; details: incubation time: 72 h
In short: as §1

[3] = tested on: MFM-223; assay: as above; details: incubation time: 72 h
In short: as §1

[4] = tested on: HCC1143; assay: as above; details: incubation time: 72 h
In short: as §1

[5] = tested on: MDA-MB-231; assay: as above; details: incubation time: 72 h
In short: as §1

[6] = tested on: MDA-MB-436; assay: as above; details: incubation time: 72 h
In short: as §1

[7] = tested on: MDA-MB-468; assay: as above; details: incubation time: 72 h
In short: as §1

[8] = tested on: DU-4475; assay: as above; details: incubation time: 72 h
In short: as §1

[9] = tested on: HCC1937; assay: as above; details: incubation time: 72 h
In short: as §1

[10] = tested on: Hs578T; assay: normalised viability (% of control), CellTiter-Blue; higher = more viable cells (100 = DMSO, 0 = benzethonium chloride kill control); details: 1 nM; incubation time: 72 h
Procedure: (§2)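 DSRT, CellTiter-Blue viability, 72 h incubation. Signal is normalised to DMSO and benzethonium chloride controls. Value is the normalised response at dose 1.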

[11] = tested on: CAL-51; assay: as above; details: 1 nM; incubation time: 72 h
Procedure: as §2

[12] = tested on: BT-549; assay: as above; details: 1 nM; incubation time: 72 h
Procedure: as §2

[13] = tested on: CAL-85-1; assay: as above; details: 1 nM; incubation time: 72 h
Procedure: as §2

[14] = tested on: HCC1599; assay: as above; details: 1 nM; incubation time: 72 h
Procedure: as §2

[15] = tested on: HDQ-P1; assay: as above; details: 1 nM; incubation time: 72 h
Procedure: as §2

[16] = tested on: MFM-223; assay: as above; details: 1 nM; incubation time: 72 h
Procedure: as §2

[17] = tested on: BT-474; assay: as above; details: 1 nM; incubation time: 72 h
Procedure: as §2

[18] = tested on: MDA-MB-453; assay: as above; details: 1 nM; incubation time: 72 h
Procedure: as §2

[19] = tested on: CAL-120; assay: as above; details: 1 nM; incubation time: 72 h
Procedure: as §2

[20] = tested on: HCC1143; assay: as above; details: 1 nM; incubation time: 72 h
Procedure: as §2

[21] = tested on: CAL-148; assay: as above; details: 1 nM; incubation time: 72 h
Procedure: as §2

[22] = tested on: MDA-MB-231; assay: as above; details: 1 nM; incubation time: 72 h
Procedure: as §2

[23] = tested on: MDA-MB-436; assay: as above; details: 1 nM; incubation time: 72 h
Procedure: as §2

[24] = tested on: MDA-MB-468; assay: as above; details: 1 nM; incubation time: 72 h
Procedure: as §2

[25] = tested on: DU-4475; assay: as above; details: 1 nM; incubation time: 72 h
Procedure: as §2

[26] = tested on: SK-BR-3; assay: as above; details: 1 nM; incubation time: 72 h
Procedure: as §2

[27] = tested on: HCC1937; assay: as above; details: 1 nM; incubation time: 72 h
Procedure: as §2

## O=S(=O)(c1cccc2cnccc12)N1CCCNCC1 [Fasudil]
[1]; 10 nM
  normalised viability: 98.4%
[1]; 1000 nM
  normalised viability: 114%
[1]; 10000 nM
  normalised viability: 116%
[2]; 3 nM
  normalised viability: 118%
[2]; 30 nM
  normalised viability: 108%
[2]; 100 nM
  normalised viability: 116%
[3]; 10 nM
  normalised viability: 102%
[3]; 1000 nM
  normalised viability: 89%
[3]; 10000 nM
  normalised viability: 77.7%
[4]; 10 nM
  normalised viability: 85.1%
[4]; 1000 nM
  normalised viability: 96.2%
[4]; 10000 nM
  normalised viability: 80.2%
[5]; 10 nM
  normalised viability: 98.8%
[5]; 1000 nM
  normalised viability: 110%
[5]; 10000 nM
  normalised viability: 127%
[6]; 10 nM
  normalised viability: 83.5%
[6]; 1000 nM
  normalised viability: 108%
[6]; 10000 nM
  normalised viability: 107%
[7]; 10 nM
  normalised viability: 106%
[7]; 1000 nM
  normalised viability: 110%
[7]; 10000 nM
  normalised viability: 105%
[8]; 3 nM
  normalised viability: 100%
[8]; 30 nM
  normalised viability: 109%
[8]; 100 nM
  normalised viability: 101%
[9]; 10 nM
  normalised viability: 122%
[9]; 1000 nM
  normalised viability: 105%
[9]; 10000 nM
  normalised viability: 90.6%
[10]
  normalised viability: 116%
[11]
  normalised viability: 111%
[12]
  normalised viability: 98.8%
[13]
  normalised viability: 96%
[14]
  normalised viability: 99.4%
[15]
  normalised viability: 99.9%
[16]
  normalised viability: 105%
[17]
  normalised viability: 102%
[18]
  normalised viability: 121%
[19]
  normalised viability: 83.9%
[20]
  normalised viability: 92.8%
[21]
  normalised viability: 90.8%
[22]
  normalised viability: 106%
[23]
  normalised viability: 109%
[24]
  normalised viability: 102%
[25]
  normalised viability: 108%
[26]
  normalised viability: 93.8%
[27]
  normalised viability: 88.6%

## COc1ccc(-c2cc3c(C)nc(N)nc3n([C@H]3CC[C@H](OCCO)CC3)c2=O)cn1
[1]; 10 nM
  normalised viability: 96.1%
[1]; 1000 nM
  normalised viability: 17.9%
[1]; 10000 nM
  normalised viability: 3.2%
[2]; 3 nM
  normalised viability: 99.7%
[2]; 30 nM
  normalised viability: 89.1%
[2]; 100 nM
  normalised viability: 59%
[3]; 10 nM
  normalised viability: 92%
[3]; 1000 nM
  normalised viability: 16%
[3]; 10000 nM
  normalised viability: 7.1%
[4]; 10 nM
  normalised viability: 111%
[4]; 1000 nM
  normalised viability: 30.4%
[4]; 10000 nM
  normalised viability: 15%
[5]; 10 nM
  normalised viability: 84.7%
[5]; 1000 nM
  normalised viability: 16.7%
[5]; 10000 nM
  normalised viability: 8.35%
[6]; 10 nM
  normalised viability: 103%
[6]; 1000 nM
  normalised viability: 15.8%
[6]; 10000 nM
  normalised viability: 7.22%
[7]; 10 nM
  normalised viability: 92.7%
[7]; 1000 nM
  normalised viability: 21.5%
[7]; 10000 nM
  normalised viability: 6.53%
[8]; 3 nM
  normalised viability: 109%
[8]; 30 nM
  normalised viability: 96.7%
[8]; 100 nM
  normalised viability: 89%
[9]; 10 nM
  normalised viability: 68.4%
[9]; 1000 nM
  normalised viability: 28%
[9]; 10000 nM
  normalised viability: 30.2%
[10]
  normalised viability: 100%
[11]
  normalised viability: 95.4%
[12]
  normalised viability: 96.5%
[13]
  normalised viability: 105%
[14]
  normalised viability: 130%
[15]
  normalised viability: 75.8%
[16]
  normalised viability: 102%
[17]
  normalised viability: 100%
[18]
  normalised viability: 87.1%
[19]
  normalised viability: 120%
[20]
  normalised viability: 106%
[21]
  normalised viability: 104%
[22]
  normalised viability: 118%
[23]
  normalised viability: 103%
[24]
  normalised viability: 104%
[25]
  normalised viability: 106%
[26]
  normalised viability: 86.5%
[27]
  normalised viability: 90.5%
